Assay results published in patent publication US12343326B2, “Psychoactive medicines and their use for treating psychiatric and neurological conditions and disorders” (Transcend Therapeutics, Inc., priority 2021, dated 2025).

Tests used:
Assay in all cases: β-arrestin based GPCR screen (PathHunter / GPCRmax), agonist mode
Format in all cases: cell-based
Set-up in all cases: host or cells: PathHunter cell lines
[1] = biological target: 168 GPCRs (Homo sapiens, UniProt P32249)
Description: (§1) For agonist determination, cells were incubated with sample to induce response. […] Vehicle concentration was 1%.

[2] = biological target: 168 GPCRs (Homo sapiens, UniProt P23945); details: FSHR
Description: as §1

[3] = biological target: T1, 168 GPCRs (Homo sapiens, UniProt P32247); details: BRS3, Agonist
T1 sequence (P32247 1-399): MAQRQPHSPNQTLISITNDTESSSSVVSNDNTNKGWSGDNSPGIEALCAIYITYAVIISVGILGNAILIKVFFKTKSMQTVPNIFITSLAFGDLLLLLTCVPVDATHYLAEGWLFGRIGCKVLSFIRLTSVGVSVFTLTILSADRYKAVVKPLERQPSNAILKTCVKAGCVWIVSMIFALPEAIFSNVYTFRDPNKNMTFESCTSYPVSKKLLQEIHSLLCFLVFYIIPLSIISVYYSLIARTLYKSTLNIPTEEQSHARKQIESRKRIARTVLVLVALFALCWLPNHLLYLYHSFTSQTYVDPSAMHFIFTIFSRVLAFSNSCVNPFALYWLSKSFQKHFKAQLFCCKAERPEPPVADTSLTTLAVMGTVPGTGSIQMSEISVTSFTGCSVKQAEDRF
Description: as §1

[4] = biological target: 168 GPCRs (Homo sapiens, UniProt P51679); details: CCR4, Agonist
Description: as §1

[5] = biological target: 168 GPCRs (Homo sapiens, UniProt Q92847); details: GHSR
Description: as §1

[6] = biological target: 168 GPCRs (Homo sapiens, UniProt P49238)
Description: as §1

[7] = biological target: T2, 168 GPCRs (Homo sapiens, UniProt P08173); details: CHRM4, Agonist
T2 sequence (P08173 1-479): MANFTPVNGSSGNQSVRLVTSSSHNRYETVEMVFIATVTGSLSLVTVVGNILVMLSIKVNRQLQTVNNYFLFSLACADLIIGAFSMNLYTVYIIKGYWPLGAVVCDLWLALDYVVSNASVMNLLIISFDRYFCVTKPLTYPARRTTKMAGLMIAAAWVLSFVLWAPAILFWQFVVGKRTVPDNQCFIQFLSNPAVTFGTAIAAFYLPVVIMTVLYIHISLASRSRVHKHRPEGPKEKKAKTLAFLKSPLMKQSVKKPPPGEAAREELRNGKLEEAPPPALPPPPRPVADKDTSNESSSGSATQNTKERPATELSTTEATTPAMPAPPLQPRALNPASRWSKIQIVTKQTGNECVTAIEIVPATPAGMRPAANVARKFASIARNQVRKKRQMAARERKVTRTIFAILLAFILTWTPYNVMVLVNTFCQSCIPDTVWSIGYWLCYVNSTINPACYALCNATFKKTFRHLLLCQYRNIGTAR
Description: as §1

[8] = biological target: T3, 168 GPCRs (Homo sapiens, UniProt P30939); details: HTR1F
T3 sequence (P30939 1-366): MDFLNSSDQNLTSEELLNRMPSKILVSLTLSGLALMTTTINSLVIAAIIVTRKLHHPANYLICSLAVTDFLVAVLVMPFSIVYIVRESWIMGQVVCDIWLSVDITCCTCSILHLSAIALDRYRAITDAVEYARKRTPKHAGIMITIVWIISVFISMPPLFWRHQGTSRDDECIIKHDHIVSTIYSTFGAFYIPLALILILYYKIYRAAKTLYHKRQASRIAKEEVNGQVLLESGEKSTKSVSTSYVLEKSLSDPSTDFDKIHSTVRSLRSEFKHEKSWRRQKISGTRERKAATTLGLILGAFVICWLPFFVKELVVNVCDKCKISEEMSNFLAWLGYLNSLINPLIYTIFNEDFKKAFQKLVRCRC
Description: as §1

[9] = biological target: 168 GPCRs (Homo sapiens, UniProt Q16581); details: C3AR1, Agonist
Description: as §1

[10] = biological target: 168 GPCRs (Homo sapiens, UniProt P08912); details: CHRM5, Agonist
Description: as §1

[11] = biological target: 168 GPCRs (Homo sapiens, UniProt Q9NSD7)
Description: as §1

[12] = biological target: 168 GPCRs (Homo sapiens, UniProt P43088); details: PTGFR
Description: as §1

[13] = biological target: 168 GPCRs (Homo sapiens, UniProt O95977)
Description: as §1

[14] = biological target: 168 GPCRs (Homo sapiens, UniProt Q8TDV5)
Description: as §1

168 GPCRs (Homo sapiens, UniProt P23945), sequence (P23945 18-695): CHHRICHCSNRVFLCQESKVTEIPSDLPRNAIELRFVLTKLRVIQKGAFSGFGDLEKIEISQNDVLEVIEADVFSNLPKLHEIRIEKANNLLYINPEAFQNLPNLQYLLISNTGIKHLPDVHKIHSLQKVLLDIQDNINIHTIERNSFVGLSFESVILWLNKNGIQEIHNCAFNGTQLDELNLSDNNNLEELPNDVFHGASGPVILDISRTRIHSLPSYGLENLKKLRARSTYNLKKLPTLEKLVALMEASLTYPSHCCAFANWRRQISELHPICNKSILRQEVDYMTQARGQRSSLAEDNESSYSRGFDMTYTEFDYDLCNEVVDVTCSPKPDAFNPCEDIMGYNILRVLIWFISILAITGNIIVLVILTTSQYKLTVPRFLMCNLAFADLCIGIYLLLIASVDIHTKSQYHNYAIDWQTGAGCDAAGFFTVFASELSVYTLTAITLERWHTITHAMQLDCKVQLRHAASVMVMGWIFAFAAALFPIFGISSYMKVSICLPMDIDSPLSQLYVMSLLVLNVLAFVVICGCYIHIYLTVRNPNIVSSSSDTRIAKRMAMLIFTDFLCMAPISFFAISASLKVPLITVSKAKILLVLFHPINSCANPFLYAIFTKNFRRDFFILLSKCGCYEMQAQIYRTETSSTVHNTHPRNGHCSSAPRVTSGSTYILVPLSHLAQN
168 GPCRs (Homo sapiens, UniProt P51679), sequence (P51679 whole entry): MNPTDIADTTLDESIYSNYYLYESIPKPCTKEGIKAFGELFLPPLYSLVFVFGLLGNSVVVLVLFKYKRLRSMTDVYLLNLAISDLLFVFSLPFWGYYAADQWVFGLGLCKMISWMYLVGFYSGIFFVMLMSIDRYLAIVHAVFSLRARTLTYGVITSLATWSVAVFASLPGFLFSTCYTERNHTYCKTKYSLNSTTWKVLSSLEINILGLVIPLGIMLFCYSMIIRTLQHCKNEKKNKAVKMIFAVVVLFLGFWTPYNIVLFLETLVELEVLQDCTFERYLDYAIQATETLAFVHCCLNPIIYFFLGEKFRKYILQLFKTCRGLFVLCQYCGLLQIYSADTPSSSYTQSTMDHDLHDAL
168 GPCRs (Homo sapiens, UniProt P08912), sequence (P08912 whole entry): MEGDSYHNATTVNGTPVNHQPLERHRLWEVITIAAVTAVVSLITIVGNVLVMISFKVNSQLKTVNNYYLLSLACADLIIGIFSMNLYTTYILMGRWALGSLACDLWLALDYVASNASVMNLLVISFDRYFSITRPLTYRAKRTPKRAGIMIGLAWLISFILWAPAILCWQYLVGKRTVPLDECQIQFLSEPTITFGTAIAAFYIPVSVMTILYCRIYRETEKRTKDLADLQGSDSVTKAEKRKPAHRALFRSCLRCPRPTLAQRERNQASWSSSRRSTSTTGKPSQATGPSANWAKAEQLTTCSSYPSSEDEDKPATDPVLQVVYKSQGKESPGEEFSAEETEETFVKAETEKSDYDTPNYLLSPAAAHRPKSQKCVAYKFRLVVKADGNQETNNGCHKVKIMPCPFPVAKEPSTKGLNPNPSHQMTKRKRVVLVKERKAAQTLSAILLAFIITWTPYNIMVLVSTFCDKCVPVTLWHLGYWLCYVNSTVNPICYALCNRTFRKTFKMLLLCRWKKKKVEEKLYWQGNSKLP
168 GPCRs (Homo sapiens, UniProt Q16581), sequence (Q16581 whole entry): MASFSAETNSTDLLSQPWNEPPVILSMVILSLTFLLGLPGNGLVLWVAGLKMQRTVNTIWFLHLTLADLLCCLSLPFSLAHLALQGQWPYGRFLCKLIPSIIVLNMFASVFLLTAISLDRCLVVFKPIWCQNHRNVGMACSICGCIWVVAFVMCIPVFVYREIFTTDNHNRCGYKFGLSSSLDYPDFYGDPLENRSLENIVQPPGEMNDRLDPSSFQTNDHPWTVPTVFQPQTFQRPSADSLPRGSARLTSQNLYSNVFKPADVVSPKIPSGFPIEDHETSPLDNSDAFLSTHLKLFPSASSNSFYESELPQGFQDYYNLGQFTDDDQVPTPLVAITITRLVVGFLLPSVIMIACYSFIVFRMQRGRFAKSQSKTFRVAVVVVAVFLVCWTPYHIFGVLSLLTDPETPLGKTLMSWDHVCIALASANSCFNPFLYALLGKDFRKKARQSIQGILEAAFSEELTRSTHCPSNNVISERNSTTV
168 GPCRs (Homo sapiens, UniProt P32249), sequence (P32249 whole entry): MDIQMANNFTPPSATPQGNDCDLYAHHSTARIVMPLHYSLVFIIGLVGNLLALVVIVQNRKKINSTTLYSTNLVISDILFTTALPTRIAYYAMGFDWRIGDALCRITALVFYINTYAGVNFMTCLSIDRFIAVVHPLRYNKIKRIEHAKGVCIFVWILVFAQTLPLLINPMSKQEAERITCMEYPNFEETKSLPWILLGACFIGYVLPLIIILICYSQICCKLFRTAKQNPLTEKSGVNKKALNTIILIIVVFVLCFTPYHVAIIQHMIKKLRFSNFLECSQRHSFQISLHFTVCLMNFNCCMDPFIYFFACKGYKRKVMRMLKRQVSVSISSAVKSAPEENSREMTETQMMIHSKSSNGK
168 GPCRs (Homo sapiens, UniProt O95977), sequence (O95977 whole entry): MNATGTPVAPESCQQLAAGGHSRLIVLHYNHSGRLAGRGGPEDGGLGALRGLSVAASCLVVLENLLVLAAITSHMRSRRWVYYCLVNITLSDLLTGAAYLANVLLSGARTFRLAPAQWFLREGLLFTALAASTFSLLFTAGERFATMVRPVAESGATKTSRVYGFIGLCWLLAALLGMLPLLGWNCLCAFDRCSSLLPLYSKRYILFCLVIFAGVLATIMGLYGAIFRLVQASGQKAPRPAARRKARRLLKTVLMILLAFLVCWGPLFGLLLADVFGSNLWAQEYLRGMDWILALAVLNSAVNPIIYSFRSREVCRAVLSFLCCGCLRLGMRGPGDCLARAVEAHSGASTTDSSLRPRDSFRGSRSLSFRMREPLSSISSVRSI
168 GPCRs (Homo sapiens, UniProt Q8TDV5), sequence (Q8TDV5 whole entry): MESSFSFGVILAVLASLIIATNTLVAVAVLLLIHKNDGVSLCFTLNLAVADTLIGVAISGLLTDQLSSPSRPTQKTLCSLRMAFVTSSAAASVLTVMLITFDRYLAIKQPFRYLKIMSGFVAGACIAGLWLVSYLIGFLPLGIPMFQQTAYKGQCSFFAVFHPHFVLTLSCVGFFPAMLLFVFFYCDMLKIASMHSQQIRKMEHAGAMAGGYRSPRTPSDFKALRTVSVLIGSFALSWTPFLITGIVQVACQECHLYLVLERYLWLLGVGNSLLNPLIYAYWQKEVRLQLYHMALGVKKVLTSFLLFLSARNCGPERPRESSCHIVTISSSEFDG
168 GPCRs (Homo sapiens, UniProt Q9NSD7), sequence (Q9NSD7 whole entry): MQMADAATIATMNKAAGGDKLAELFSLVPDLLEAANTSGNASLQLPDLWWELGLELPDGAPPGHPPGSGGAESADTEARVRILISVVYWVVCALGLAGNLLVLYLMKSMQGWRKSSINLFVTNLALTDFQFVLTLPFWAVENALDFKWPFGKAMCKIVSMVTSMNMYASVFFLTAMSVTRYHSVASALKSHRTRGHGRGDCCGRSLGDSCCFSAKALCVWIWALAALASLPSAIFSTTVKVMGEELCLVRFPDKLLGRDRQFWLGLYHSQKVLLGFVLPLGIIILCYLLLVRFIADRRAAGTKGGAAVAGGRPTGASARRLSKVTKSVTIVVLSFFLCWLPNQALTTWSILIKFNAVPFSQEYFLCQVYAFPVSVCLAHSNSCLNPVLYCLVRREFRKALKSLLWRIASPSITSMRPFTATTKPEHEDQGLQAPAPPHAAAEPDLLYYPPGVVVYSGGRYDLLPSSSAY
168 GPCRs (Homo sapiens, UniProt Q92847), sequence (Q92847 whole entry): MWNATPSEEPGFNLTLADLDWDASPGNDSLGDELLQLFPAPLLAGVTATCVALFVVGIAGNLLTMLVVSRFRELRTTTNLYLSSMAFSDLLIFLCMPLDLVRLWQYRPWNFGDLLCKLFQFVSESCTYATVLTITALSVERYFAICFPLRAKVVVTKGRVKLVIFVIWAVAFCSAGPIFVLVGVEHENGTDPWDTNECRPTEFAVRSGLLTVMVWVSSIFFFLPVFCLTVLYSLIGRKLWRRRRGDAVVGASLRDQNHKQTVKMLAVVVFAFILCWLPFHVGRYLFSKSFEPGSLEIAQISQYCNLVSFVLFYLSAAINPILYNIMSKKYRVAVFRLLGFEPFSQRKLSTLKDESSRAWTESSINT
168 GPCRs (Homo sapiens, UniProt P49238), sequence (P49238 whole entry): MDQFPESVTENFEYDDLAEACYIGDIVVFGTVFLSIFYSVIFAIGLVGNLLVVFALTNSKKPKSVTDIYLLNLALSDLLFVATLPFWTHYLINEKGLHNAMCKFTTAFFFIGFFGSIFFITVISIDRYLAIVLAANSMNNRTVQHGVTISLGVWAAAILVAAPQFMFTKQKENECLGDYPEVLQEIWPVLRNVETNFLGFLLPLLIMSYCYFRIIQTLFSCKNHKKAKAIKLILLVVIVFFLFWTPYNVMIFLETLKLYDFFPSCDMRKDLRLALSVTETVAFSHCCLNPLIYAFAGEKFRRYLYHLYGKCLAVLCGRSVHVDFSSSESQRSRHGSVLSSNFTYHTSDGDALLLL
168 GPCRs (Homo sapiens, UniProt P43088), sequence (P43088 whole entry): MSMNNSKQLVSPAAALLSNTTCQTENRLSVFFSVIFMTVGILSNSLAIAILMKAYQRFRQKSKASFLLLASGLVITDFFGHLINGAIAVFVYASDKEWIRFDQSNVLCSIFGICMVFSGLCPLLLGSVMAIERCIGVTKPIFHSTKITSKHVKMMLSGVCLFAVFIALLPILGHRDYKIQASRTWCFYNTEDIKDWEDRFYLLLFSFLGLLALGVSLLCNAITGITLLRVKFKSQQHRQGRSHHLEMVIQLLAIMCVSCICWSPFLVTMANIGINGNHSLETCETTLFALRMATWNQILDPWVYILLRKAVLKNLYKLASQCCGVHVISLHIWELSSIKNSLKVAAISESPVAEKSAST

## CNC(C)C(=O)c1ccc2c(c1)OCO2 (stereo not shown) [methylone, 3,4-methylenedioxy-N-methylcathinone]
[1]; EBI2, Agonist mode, 10 uM
  activity at 10 µM: 0.1%
[1]; EBI2, Agonist, 1 uM
  activity at 1 µM: 0.5%
[2]; Agonist mode, 10 uM
  activity at 10 µM: 2.2%
[2]; Agonist, 1 uM
  activity at 1 µM: -1%
[3]; 1 uM
  activity at 1 µM: 4.5%
[3]; 10 uM
  activity at 10 µM: -4.6%
[4]; 1 uM
  activity at 1 µM: -0.5%
[4]; 10 uM
  activity at 10 µM: 1.4%
[5]; Agonist mode, 10 uM
  activity at 10 µM: -7.2%
[5]; Agonist, 1 uM
  activity at 1 µM: -6.6%
[6]; CX3CR1, Agonist mode, 10 uM
  activity at 10 µM: -0.4%
[6]; CX3CR1, Agonist, 1 uM
  activity at 1 µM: 0%
[7]; 1 uM
  activity at 1 µM: -5.8%
[7]; 10 uM
  activity at 10 µM: -6.2%
[8]; Agonist mode, 10 uM
  activity at 10 µM: -3%
[8]; Agonist, 1 uM
  activity at 1 µM: -4.4%
[9]; 1 uM
  activity at 1 µM: -0.1%
[9]; 10 uM
  activity at 10 µM: 0%
[10]; 1 uM
  activity at 1 µM: 7.2%
[10]; 10 uM
  activity at 10 µM: 8.7%
[11]; RXFP3, Agonist mode, 10 uM
  activity at 10 µM: -8.7%
[11]; RXFP3, Agonist, 1 uM
  activity at 1 µM: -7.6%
[12]; Agonist mode, 10 uM
  activity at 10 µM: -0.2%
[12]; Agonist, 1 uM
  activity at 1 µM: 0.3%
[13]; EDG6, Agonist mode, 10 uM
  activity at 10 µM: 0.3%
[13]; EDG6, Agonist, 1 uM
  activity at 1 µM: -1.7%
[14]; GPR119, Agonist mode, 10 uM
  activity at 10 µM: -2.2%
[14]; GPR119, Agonist, 1 uM
  activity at 1 µM: -5.8%
